This is an account of results in article PMC12648443, “Modifications of NU-9, a potent protein aggregation inhibitor. Properties and activity in a cellular model of amyotrophic lateral sclerosis” (Bioorganic chemistry, 2025).

The experiment relates to HT22 hippocampal cells. As to the kind of experiment: DAPRed autophagy dye live cell imaging. Type of experiment: cell-based, mouse. The note with it: 3 μM, 5 h treatment, bafilomycin 0.1 μM in the last 3 h. As for the experimental part:
HT22 immortalized mouse hippocampal neuronal cell line was maintained in DMEM supplemented with 10% FBS and 1% penicillin-streptomycin under standard conditions (37 °C, 5% CO2). On the day before the experiment, HT22 cells were transferred to a sterile poly-D-lysine-coated Nunc™ Lab-Tek™ II Chambered Coverglass (8 wells; Thermo Fisher Sci. cat. 155,409) at a concentration of 40,000 cells/300 μL of media in each well and incubated overnight at 37 °C. Stock solutions of Torin-1 (10 mM) and 20 (10 mM) were prepared in DMSO and then diluted in media to obtain the final treatment solutions at 0.2 and 3 μM, respectively. The media was removed, the cells were quickly washed with 1×PBS solution, and fresh media containing the compounds or the DMSO (0.1 % v/v) were transferred to the wells. The plates were incubated for 2 h. The media was removed, and after washing once with 1×PBS, fresh media containing Bafilomycin (0.1 μM), DAPRed dye (0.25 μM) and Hoescht 33,342 (55 μg/mL) was added to the wells and the cells were incubated for 3 h at 37 °C. […] Puncta structures >0.2 μm were then identified using Otsu thresholding and the results represented as particles per cell for each set of images analyzed. […] The statistical differences between two or more groups were determined by One-way ANOVA followed by Sidak post-hoc multiple-comparison test. […]

As for `CC(C)(Oc1cc(C(F)(F)F)cc(C(F)(F)F)c1)C1CC(=O)CC(=O)C1` [Compound 20, 5-(2-(3,5-bis(trifluoromethyl)phenoxy)propan-2-yl)cyclohexane-1,3-dione], the “DAPRed fluorescence signal (autophagy flux) compared to vehicle” value was “increasing DAPRed fluorescence signal”.
